{"source": "patent US20080119462A1", "about": "“METHOD FOR TREATING VASCULAR HYPERPERMEABLE DISEASE” (Sucampo AG, priority 2003, published 2008)", "key": {"diabetic rats": {"test_system": "diabetic rats", "assay": "Ocular permeability in STZ diabetic rats (leakage of fluorescein into the vitreous)", "assay_type": "in vivo, rat", "conditions": "10 mg/kg, s.c. u.i.d., daily from 2 weeks after STZ for 2 weeks, mean ± S.E.M., 10 rats", "description": "Diabetes in rats was induced with an intraperitoneal (i.p.) injection of 65 mg/ml/kg of streptozotocin (STZ) in 2 mmol/l citrate buffer (pH 4.5) after a 20-h fast. At the same time control rats were injected with an equal volume of 2 mmol/l citrate buffer. Plasma glucose level was checked by a calorimetric method. At day 3 of STZ treatment, the rats were diagnosed with diabetes showing a plasma glucose level of 350 mg/dl.\nThe treatment of Compound A was given daily from 2 weeks after STZ treatment for 2 weeks. At 24 hrs after final treatment of Compound A, the vascular permeability in oculus was investigated based on the leakage of dye into the vitreous 30 min after intravenous injection of fluorescein solution (40 mg/ml/kg). Permeability was expressed as vitreous/plasma ratio of fluorescein concentration measured by a fluorophotometer. At the same time, the plasma SSAO activity was checked by the radiochemical-enzyme assay using ^14C-benzylamine (2×10^−5 mol/l final concentration) as substrate.\nIn the same manner as in Example 2, the effect of various VAP-1 inhibitors on ocular permeability was determined in diabetic rats."}, "Human plasma SSAO": {"molecular_target": "T1, Human plasma SSAO (Homo sapiens, UniProt Q16853)", "T1 construct": "The enzyme suspension prepared from blood plasma was pre-incubated with Compound A; from tissue; host or cells: human blood plasma", "T1 sequence (Q16853 27-763 limits assumed)": "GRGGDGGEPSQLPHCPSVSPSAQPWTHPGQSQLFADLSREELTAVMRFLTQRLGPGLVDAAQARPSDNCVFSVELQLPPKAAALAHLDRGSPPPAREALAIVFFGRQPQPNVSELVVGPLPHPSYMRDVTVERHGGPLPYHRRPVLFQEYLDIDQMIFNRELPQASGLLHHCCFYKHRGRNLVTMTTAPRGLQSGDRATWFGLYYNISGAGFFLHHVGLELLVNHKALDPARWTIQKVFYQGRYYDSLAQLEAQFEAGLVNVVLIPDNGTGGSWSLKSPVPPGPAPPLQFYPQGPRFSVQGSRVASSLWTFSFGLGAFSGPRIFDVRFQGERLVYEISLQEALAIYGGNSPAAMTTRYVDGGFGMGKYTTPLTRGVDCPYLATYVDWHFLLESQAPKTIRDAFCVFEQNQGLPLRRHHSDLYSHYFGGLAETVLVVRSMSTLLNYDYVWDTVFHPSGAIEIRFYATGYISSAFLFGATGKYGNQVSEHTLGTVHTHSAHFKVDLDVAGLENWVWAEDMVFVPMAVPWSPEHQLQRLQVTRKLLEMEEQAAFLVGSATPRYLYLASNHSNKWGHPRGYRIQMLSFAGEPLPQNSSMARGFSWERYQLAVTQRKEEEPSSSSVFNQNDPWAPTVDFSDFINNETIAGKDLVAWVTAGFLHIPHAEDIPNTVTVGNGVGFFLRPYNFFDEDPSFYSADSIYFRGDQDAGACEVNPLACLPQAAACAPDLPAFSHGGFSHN", "assay": "Radiochemical-enzyme assay of VAP-1 enzyme (SSAO) activity with 14C-benzylamine, human plasma", "assay_type": "biochemical", "description": "VAP-1 enzyme (SSAO) activity in both human and rat plasma was determined by a radiochemical-enzyme assay using ^14C-benzylamine as artificial substrate. The enzyme suspension prepared from blood plasma was pre-incubated with Compound A in 96-well microplate at room temperature for 30 min. The enzyme suspension was then incubated with ^14C-benzylamine (2×10^−5 mol/l final concentration) in a final volume of 50 μl at 37° C. for 1 hour. The enzyme reaction was terminated by adding 2 mol/l (50 μl) citric acid. The oxidized products were directly extracted into a 200 μl toluene scintillator, and its radioactivity was measured by a scintillation spectrometer. Monoamine oxidase (MAO) and diamine oxidase (DAO, histaminase) activities were also determined by similar method using ^14C-phenylethylamine and ^14C-putrescine as substrate, respectively. Cloned DAO from cDNA libraries was used in human DAO assay. Inhibition activity was expressed as IC50 (μmol/l) value."}, "retinal VAP-1": {"molecular_target": "T2, retinal VAP-1 (Rattus norvegicus, UniProt O08590)", "T2 construct": "from tissue; host or cells: retina of STZ diabetic rats", "T2 sequence (O08590 1-763)": "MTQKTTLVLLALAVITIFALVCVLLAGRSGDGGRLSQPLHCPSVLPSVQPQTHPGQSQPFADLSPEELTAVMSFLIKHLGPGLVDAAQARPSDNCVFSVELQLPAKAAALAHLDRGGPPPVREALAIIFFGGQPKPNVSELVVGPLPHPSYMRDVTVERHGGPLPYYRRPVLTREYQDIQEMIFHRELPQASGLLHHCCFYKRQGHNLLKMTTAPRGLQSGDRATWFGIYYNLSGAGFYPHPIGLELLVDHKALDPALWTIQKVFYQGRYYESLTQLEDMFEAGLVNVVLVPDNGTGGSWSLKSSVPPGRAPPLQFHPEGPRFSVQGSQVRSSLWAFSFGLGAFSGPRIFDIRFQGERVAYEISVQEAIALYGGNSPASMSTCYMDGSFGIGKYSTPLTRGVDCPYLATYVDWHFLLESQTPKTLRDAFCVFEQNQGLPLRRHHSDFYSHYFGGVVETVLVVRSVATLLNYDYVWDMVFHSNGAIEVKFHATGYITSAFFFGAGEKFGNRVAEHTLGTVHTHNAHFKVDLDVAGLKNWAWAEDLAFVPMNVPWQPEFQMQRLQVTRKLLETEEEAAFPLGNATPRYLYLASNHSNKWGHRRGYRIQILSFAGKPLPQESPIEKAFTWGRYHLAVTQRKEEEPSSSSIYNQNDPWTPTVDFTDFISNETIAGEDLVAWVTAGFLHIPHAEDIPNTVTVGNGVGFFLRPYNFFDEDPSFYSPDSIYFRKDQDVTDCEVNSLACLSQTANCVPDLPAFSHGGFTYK", "assay": "Retinal VAP-1 activity in STZ diabetic rats after eye-drop instillation", "assay_type": "in vivo", "description": "A 0.1% solution of Compound A was instilled into the eyes of STZ diabetic rats (10 μl/eye) prepared in the same manner as in Example 2. To the normal group and STZ control group, a vehicle was instilled. At 6 hours from the instillation, the retina was removed from the animals and the retinal VAP-1 activity was determined."}}, "data": [{"compound": "CC(=O)Nc1nc(CCc2ccc(NC(=N)N)cc2)cs1", "note": "[Compound A, N-{4-[2-(4-{[amino(imino)methyl]amino}phenyl)ethyl]-1,3-thiazol-2-yl}acetamide]", "values": [{"measurement": "Vitreous/Plasma Ratio of Fluorescein Concentration", "setting": "diabetic rats", "result": "5.39 ± 0.73 ×10^−3"}, {"measurement": "Inhibition of the enzyme activity of human plasma SSAO (in words)", "setting": "Human plasma SSAO", "result": "completely inhibited"}, {"measurement": "IC50", "setting": "Human plasma SSAO; 30 min pre-incubation, 14C-benzylamine 2×10^−5 mol/l, 37° C., 1 hour, read-out: Inhibitory effect (IC50 values) Human plasma SSAO", "result": 150, "unit": "nM"}, {"measurement": "Effect on the increased retinal VAP-1 activity in STZ diabetic rats (in words)", "setting": "retinal VAP-1; 0.1% solution instilled into the eyes, 6 hours", "result": "completely inhibited"}, {"measurement": "Retinal VAP-1 activity", "setting": "retinal VAP-1; STZ diabetic rats, 0.1%, ocular instillation (10 μl/eye), 6 hours after instillation, mean ± S.E.M., 4 rats", "result": "4.86 ± 0.70", "unit": "pmol/min/mg protein"}]}]}
